In patent publication US9732094B2, “Arylquinazolines” (Merck Patent GmbH, priority 2013, dated 2017):
Where two headings read alike, the source gives them in different places.

Columns and labels:
[1] = target: DNA-PK (Homo sapiens (Human), UniProt P78527); assay: DNA-PK assay (biochemical), flashplate 33P-ATP kinase assay; settings: biochemical DNA-PK assay
How it was run: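 Radiometric kinase reaction in streptavidin-coated flashplates, stopped with 200 mM EDTA, then 30 min room-temperature incubation and saline washes.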

[2] = target: DNA-PK phosphorylation at serine 2056 (Homo sapiens (Human), UniProt P78527); assay: DNA-PK phosphorylation at serine 2056 (cellular), bleomycin-treated HCT116 cells, ELISA; type: cell-based; settings: cellular DNA-PK phosphorylation at serine 2056, HCT116; read-out: IC50 pDNA-PK
How it was run: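 Chemiluminescent ELISA quantified DNA-PK Ser2056 phosphorylation relative to total DNA-PKcs in HCT116 cells. Cells received compounds together with 10 μM bleomycin for 6 h; DMSO served as blank.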

[3] = target: Kv11.1 (hERG) (Homo sapiens (Human), UniProt Q12809); assay: Kv11.1 (hERG) ion channel activity (patch clamp assay), HEK293 cells transfected with hERG gene; settings: hERG patch clamp assay (cells without asterisk)
Chain of Kv11.1 (hERG) (Q12809 whole entry): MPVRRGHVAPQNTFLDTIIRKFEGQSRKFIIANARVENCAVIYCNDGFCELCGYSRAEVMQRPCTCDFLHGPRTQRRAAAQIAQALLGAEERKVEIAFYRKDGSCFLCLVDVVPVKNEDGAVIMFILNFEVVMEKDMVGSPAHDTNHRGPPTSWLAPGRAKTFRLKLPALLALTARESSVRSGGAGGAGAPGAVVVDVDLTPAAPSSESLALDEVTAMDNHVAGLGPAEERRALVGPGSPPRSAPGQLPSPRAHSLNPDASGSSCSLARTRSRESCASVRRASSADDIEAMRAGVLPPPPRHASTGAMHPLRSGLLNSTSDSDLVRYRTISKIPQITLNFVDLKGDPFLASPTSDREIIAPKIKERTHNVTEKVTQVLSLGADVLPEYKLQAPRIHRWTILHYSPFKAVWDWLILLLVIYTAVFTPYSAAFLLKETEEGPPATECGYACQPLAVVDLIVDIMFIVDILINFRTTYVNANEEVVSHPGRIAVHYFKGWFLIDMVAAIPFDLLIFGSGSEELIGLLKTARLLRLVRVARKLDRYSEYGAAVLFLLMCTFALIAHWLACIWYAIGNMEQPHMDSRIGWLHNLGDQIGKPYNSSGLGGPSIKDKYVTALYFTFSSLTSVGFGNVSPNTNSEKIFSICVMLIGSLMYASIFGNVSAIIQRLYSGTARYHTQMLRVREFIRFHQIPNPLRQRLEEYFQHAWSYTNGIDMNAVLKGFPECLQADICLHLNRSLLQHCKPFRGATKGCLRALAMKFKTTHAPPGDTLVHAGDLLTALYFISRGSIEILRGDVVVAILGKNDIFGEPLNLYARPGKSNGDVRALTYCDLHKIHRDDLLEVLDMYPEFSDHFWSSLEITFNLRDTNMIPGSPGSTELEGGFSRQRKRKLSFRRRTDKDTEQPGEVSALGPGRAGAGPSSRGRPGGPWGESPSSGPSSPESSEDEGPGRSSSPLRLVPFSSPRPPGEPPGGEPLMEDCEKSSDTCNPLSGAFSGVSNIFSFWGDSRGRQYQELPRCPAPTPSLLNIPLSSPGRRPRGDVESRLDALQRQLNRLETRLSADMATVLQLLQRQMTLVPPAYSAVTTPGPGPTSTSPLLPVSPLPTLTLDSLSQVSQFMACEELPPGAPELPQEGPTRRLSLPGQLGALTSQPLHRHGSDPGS

Compound | IC50 [1] | IC50 [2] | Ki ([3]; read-out: Ki [Kv1.11 hERG]) | Ki ([3]; Ki [Kv1.11 hERG])
Cn1nc(C(C(N)=O)c2cc(-c3ncnc4cc(N5CCOCC5)ccc34)c(F)cc2Cl)ccc1=O (stereo not drawn) [Example 311, 2-[2-Chloro-4-fluoro-5-(7-morpholin-4-yl-quinazolin-4-yl)-phenyl]-2-(1-methyl-6-oxo-1,6-dihydro-pyridazin-3-yl)-acetamide] | > 0.03 µM | 10 to 30 µM | > 25 µM | –
Cn1c(C(C(N)=O)c2cc(-c3ncnc4cc(N5CCOCC5)ccc34)c(F)cc2Cl)cccc1=O (stereo not drawn) [Example 312, 2-[2-Chloro-4-fluoro-5-(7-morpholin-4-yl-quinazolin-4-yl)-phenyl]-2-(1-methyl-6-oxo-1,6-dihydro-pyridin-2-yl)-acetamide] | > 0.03 µM | 10 to 30 µM | > 25 µM | –
NC(=O)C(c1ccc(F)c(-c2ncnc3cc(N4CCOCC4)ccc23)c1)c1ncccc1Cl (stereo not drawn) [Example 313, 2-(3-Chloro-pyridin-2-yl)-2-[4-fluoro-3-(7-morpholin-4-yl-quinazolin-4-yl)-phenyl]acetamide] | 0.007 to 0.03 µM | 5 to 10 µM | – | 15 to 25 µM
Cc1ncc(C(O)c2ccc(F)c(-c3ncnc4cc(N5CCOCC5)ccc34)c2)nc1C (stereo not drawn) [Example 314, (5,6-Dimethyl-pyrazin-2-yl)-[4-fluoro-3-(7-morpholin-4-yl-quinazolin-4-yl)-phenyl]methanol] | 0.007 to 0.03 µM | 0.5 to 5 µM | – | 15 to 25 µM
NC(=O)C(c1cc(-c2ncnc3cc(N4CCOCC4)ccc23)ccc1Cl)c1nccnc1Cl (stereo not drawn) [Example 315, 2-[2-Chloro-5-(7-morpholin-4-yl-quinazolin-4-yl)-phenyl]-2-(3-chloro-pyrazin-2-yl)-acetamide] | > 0.03 µM | 10 to 30 µM | – | 10 to 15 µM
Cn1nc(C(C(N)=O)c2ccc(F)c(-c3ncnc4cc(N5CCOCC5)ccc34)c2)ccc1=O (stereo not drawn) [Example 317, 2-[4-Fluoro-3-(7-morpholin-4-yl-quinazolin-4-yl)-phenyl]-2-(1-methyl-6-oxo-1,6-dihydro-pyridazin-3-yl)-acetamide] | > 0.03 µM | 10 to 30 µM | – | 15 to 25 µM
Cc1cnc(C(C(N)=O)c2ccc(F)c(-c3ncnc4cc(N5CCOCC5)ccc34)c2)c(C)n1 (stereo not drawn) [Example 318, 2-(3,5-Dimethyl-pyrazin-2-yl)-2-[4-fluoro-3-(7-morpholin-4-yl-quinazolin-4-yl)-phenyl]acetamide] | 0.007 to 0.03 µM | 10 to 30 µM | > 25 µM | –
COc1nccnc1C(C(N)=O)c1cc(-c2ncnc3cc(N4CCOCC4)ccc23)c(F)cc1F (stereo not drawn) [Example 319, 2-[2,4-Difluoro-5-(7-morpholin-4-ylquinazolin-4-yl)phenyl]-2-(3-methoxypyrazin-2-yl)acetamide] | 0.007 to 0.03 µM | 5 to 10 µM | > 25 µM | –
COc1nccnc1C(C(N)=O)c1cc(-c2ncnc3cc(N4CCOCC4)ccc23)c(F)cc1Cl (stereo not drawn) [Example 320, 2-[2-Chloro-4-fluoro-5-(7-morpholin-4-yl-quinazolin-4-yl)-phenyl]-2-(3-methoxy-pyrazin-2-yl)acetamide] | 0.007 to 0.03 µM | 0.5 to 5 µM | > 25 µM | –
NC(=O)C(c1ccc(F)c(-c2ncnc3cc(N4CCOCC4)ccc23)c1)c1c(F)cncc1F (stereo not drawn) [Example 321, 2-(3,5-Difluoro-pyridin-4-yl)-2-[4-fluoro-3-(7-morpholin-4-yl-quinazolin-4-yl)-phenyl]acetamide] | 0.007 to 0.03 µM | 0.5 to 5 µM | – | 15 to 25 µM
NC(=O)C(c1ccc(F)c(-c2ncnc3cc(N4CCOCC4)ccc23)c1)c1cncc(F)c1Cl (stereo not drawn) [Example 322, 2-(4-Chloro-5-fluoro-pyridin-3-yl)-2-[4-fluoro-3-(7-morpholin-4-yl-quinazolin-4-yl)-phenyl]acetamide] | 0.003 to 0.007 µM | 0.5 to 5 µM | – | 10 to 15 µM
NC(=O)C(c1ccc2nccn2n1)c1cc(-c2ncnc3cc(N4CCOCC4)ccc23)c(F)cc1Cl (stereo not drawn) [Example 323, 2-[2-Chloro-4-fluoro-5-(7-morpholin-4-yl-quinazolin-4-yl)-phenyl]-2-imidazo-[1,2-b]pyridazin-6-yl-acetamide] | 0.003 to 0.007 µM | 0.5 to 5 µM | – | 15 to 25 µM
Cc1nccnc1C(C(N)=O)c1cc(-c2ncnc3cc(N4CCOCC4)ccc23)c(F)cc1Cl (stereo not drawn) [Example 324, 2-[2-Chloro-4-fluoro-5-(7-morpholin-4-yl-quinazolin-4-yl)-phenyl]-2-(3-methyl-pyrazin-2-yl)-acetamide] | 0.003 to 0.007 µM | 0.5 to 5 µM | > 25 µM | –
COc1ccc(C(C(N)=O)c2cc(-c3ncnc4cc(N5CCOCC5)ccc34)c(F)cc2Cl)nn1 (stereo not drawn) [Example 325, 2-[2-Chloro-4-f1uoro-5-(7-morpholin-4-yl-quinazolin-4-yl)-phenyl]-2-(6-methoxypyridazin-3-yl)acetamide] | > 0.03 µM | 10 to 30 µM | – | 15 to 25 µM
Cn1nc(C(O)c2ccc(F)c(-c3ncnc4cc(N5CCOCC5)ccc34)c2)ccc1=O (stereo not drawn) [Example 326, 6-{[4-Fluoro-3-(7-morpholin-4-yl-quinazolin-4-yl)-phenyl]hydroxy-methyl}-2-methyl-2H-pyridazin-3-one] | 0.007 to 0.03 µM | 0.5 to 5 µM | > 25 µM | –
Cc1nccnc1C(C(N)=O)c1ccc(F)c(-c2ncnc3cc(N4CCOCC4)ccc23)c1 (stereo not drawn) [Example 327, 2-[4-Fluoro-3-(7-morpholin-4-yl-quinazolin-4-yl)-phenyl]-2-{3-methyl-pyrazin-2-yl)-acetamide] | 0.007 to 0.03 µM | 10 to 30 µM | > 25 µM | –
OC(c1ccc(F)c(-c2ncnc3cc(N4CCOCC4)ccc23)c1)c1nccc2ccoc12 (stereo not drawn) [Example 328, [4-Fluoro-3-(7-morpholin-4-yl-quinazolin-4-yl)-phenyl)furo[2,3-c]-pyridin-7-ylmethanol] | < 0.003 µM | < 0.5 µM | < 10 µM | –
Cc1nccnc1C(C(N)=O)c1cc(-c2ncnc3cc(N4CCOCC4)ccc23)c(F)cc1F (stereo not drawn) [Example 329, 2-[2,4-Difluoro-5-(7-morpholin-4-yl-quinazolin-4-yl)-phenyl]-2-(3-methyl-pyrazin-2-yl)-acetamide] | 0.007 to 0.03 µM | 5 to 10 µM | > 25 µM | –
Oc1ncnc(C(O)c2cc(-c3ncnc4cc(N5CCOCC5)ccc34)ccc2Cl)c1Cl (stereo not drawn) [Example 330, 5-Chloro-6-{[2-chloro-5-(7-morpholin-4-yl-quinazolin-4-yl)-phenyl]hydroxy-methyl}pyrimidin-4-ol] | 0.007 to 0.03 µM | 10 to 30 µM | > 25 µM | –
Cc1nccnc1/C(C(=O)O)=C1/C=CC(=O)C(c2ncnc3cc(N4CCOCC4)ccc23)=C1 [Example 331, (3-methyl-pyrazin-2-yl)-[3-(7-morpholin-4-ylquinazolin-4-yl)-4-oxocyclohexa-2,5-dien-(E)-ylidene]-acetic acid] | 0.007 to 0.03 µM | 5 to 10 µM | > 25 µM | –
OC(c1ccc(F)c(-c2ncnc3cc(N4CCOCC4)ccc23)c1)c1nncc2ccsc12 (stereo not drawn) [Example 332, [4-Fluoro-3-(7-morpholin-4-yl-quinazolin-4-yl)-phenyl]thieno[2,3-d}-pyridazin-7-yl-methanol] | < 0.003 µM | < 0.5 µM | – | 15 to 25 µM
OC(c1ccc(F)c(-c2ncnc3cc(N4CCOCC4)ccc23)c1)c1nncc2sccc12 (stereo not drawn) [Example 333, [4-Fluoro-3-(7-morpholin-4-yl-quinazolin-4-yl)-phenyl]thieno[2,3-d}-pyridazin-4-yl-methanol] | < 0.003 µM | < 0.5 µM | – | 15 to 25 µM
Cc1cc(C(C(N)=O)c2cc(-c3ncnc4cc(N5CCOCC5)ccc34)c(F)cc2Cl)n(C)c(=O)c1 (stereo not drawn) [Example 334, 2-[2-Chloro-4-fluoro-5-(7-morpholin-4-yl-quinazolin-4-yl)-phenyl]-2-(1,4-dimethyl-6-oxo-1,6-dihydropyridin-2-yl)-acetamide] | > 0.03 µM | 10 to 30 µM | > 25 µM | –
OC(c1ccc(F)c(-c2ncnc3cc(N4CCOCC4)ccc23)c1)c1nncc2ccoc12 (stereo not drawn) [Example 335, [4-Fluoro-3-(7-morpholin-4-yl-quinazolin-4-yl)-phenyl]furo[2,3-d}-pyridazin-7-yl-methanol] | < 0.003 µM | < 0.5 µM | > 25 µM | –
OC(c1cc(-c2ncnc3cc(N4CCOCC4)ccc23)c(F)cc1F)c1nncc2ccoc12 (stereo not drawn) [Example 336, [2,4-Difluoro-5-(7-morpholin-4-yl-quinazolin-4-yl)-phenyl]furo[2,3-d}-pyridazin-7-yl-methanol] | < 0.003 µM | < 0.5 µM | > 25 µM | –
O=c1[nH]nc(C(O)c2ccc(F)c(-c3ncnc4cc(N5CCOCC5)ccc34)c2)c2sccc12 (stereo not drawn) [Example 337, 7-[[4-Fluoro-3-(7-morpholino-quinazolin-4-yl)-phenyl]hydroxy-methyl]-5H-thieno-[2,3-d}pyridazin-4-one] | < 0.003 µM | 0.5 to 5 µM | – | 15 to 25 µM
O=c1[nH]nc(C(O)c2ccc(F)c(-c3ncnc4cc(N5CCOCC5)ccc34)c2)c2ccsc12 (stereo not drawn) [Example 338, 4-[[4-Fluoro-3-(7-morpholino-quinazolin-4-yl)-phenyl]hydroxy-methyl]-6H-thieno[2,3-d}-pyridazin-7-one] | < 0.003 µM | 0.5 to 5 µM | > 25 µM | –
Cc1cc(C(O)c2cc(-c3ncnc4cc(N5CCOCC5)ccc34)c(F)cc2Cl)n(C)c(=O)c1 (stereo not drawn) [Example 339, 6-{[2-Chloro-4-fluoro-5-(7-morpholin-4-yl-quinazolin-4-yl)-phenyl]hydroxy-methyl}-1,4-dimethyl-1H-pyridin-2-one] | 0.007 to 0.03 µM | 0.5 to 5 µM | > 25 µM | –
